Series [1] deals with diet-induced obese (DIO) C57BL6 mice. The series can be described thus: Pharmacology study in DIO mice. The conditions noted are these: AC3174 and AC170222 7 nmol/kg each, C2816 and (pGlu-Gln)-CCK-8/exendin-4 50 nmol/kg. In kind it is in vivo. The protocol: Obese male 10-week old C57BL6 mice (Jackson Laboratory) on high-fat diet (D12492, 60% kcal/fat, Research Diets) were single housed upon arrival and allowed to acclimate for 2 weeks. On day −3 mice were weighed and randomized to treatment groups (n = 8/group) based on body weight, with each mouse dosed once daily with two compounds or vehicle administered separately. […] Drug was administered once daily for 10 days intraperitoneally (5 mL/kg) 2 h prior to lights off.

The subject of another series is Sprague Dawley rats. The series can be described thus: Kaolin intake in lean rats. The series is classed as in vivo. The following applies: overnight fasted lean rats, single i.p. injection; C2816 7 or 50 nmol/kg, cisplatin 10 mg/kg; vs vehicle; n = 9/group. The protocol:
After the acclimation period, rats were given chow and kaolin diet (K50001, Research Diets, Billerica, MA) in adjacent separate compartments in a divided food hopper. Rats were randomized to treatment groups based on 24 h chow intake, 24 h kaolin intake and body weight (n = 9/group). […] Cisplatin (10 mg/kg; Sigma-Aldrich, St Louis, MO) was administered i.p. as a positive control. Chow and kaolin intake was recorded at 4 and 24 h. A final body weight was also recorded at 24 h.

The mark [2] stands for this setting: terminal plasma, day 10, once daily i.p., mean ± SEM, n = 8, SEM.

Starred links: 1 amine or outer side, 2 acyl side, 3 side chain; linkers in the order of their positions; H or OH if unused. Non-standard residues stand in square brackets, D forms with d. Residues, ends and D or L forms follow the SMILES beside them. Groups on a side chain read outwards from the residue. *: point of attachment. NMeF = CN[C@@H](Cc1ccccc1)C(=O)O; NH(2-Me-phenyl) = Cc1ccccc1N*; Nle = CCCC[C@H](N)C(=O)O; X1 = O=C(Cc1ccc(O)cc1)*; CO = O=C([*:1])[*:2]

In the case of `CCCC[C@H](NC(=O)Cc1ccc(O)cc1)C(=O)NCC(=O)N[C@@H](Cc1c[nH]c2ccccc12)C(=O)N[C@@H](CCCCNC(=O)Nc1ccccc1C)C(=O)N[C@@H](CC(=O)O)C(=O)N(C)[C@@H](Cc1ccccc1)C(N)=O` [AC170222] (X1-[Nle]GWK([CO-NH(2-Me-phenyl)])D[NMeF]-NH2), the Body weight change entry in series [1] (DIO mice, once daily i.p. for 10 days, n = 8/group) is reported as “did not affect”. Also, in series [1] (terminal non-fasted blood glucose, day 10, once daily i.p., mean ± SEM, n = 8, SEM), the Glucose is on record as 280 ± 11 mg/dL. In series [1] (setting [2]), this compound registered an ALT of 86 ± 32 U/L, an AST of 95 ± 27 U/L, an Amylase of 2759 ± 75 U/L and a Cholesterol of 192 ± 28 mg/dL. In series [1] (setting [2]), this compound came in with an Insulin of 11.3 ± 4.1 ng/mL, a Lipase of 77 ± 49 U/L and a Triglycerides of 114 ± 6 mg/dL.
As to `N.N.[Cl][Pt][Cl]` [cisplatin, Cisplatin], the “Food (chow) intake at 4 h and 24 h post-dose” value in the series on Sprague Dawley rats is given as “similarly reduced food intake as high dose C2816”.

(Values after paper PMC6026274, “A GLP-1:CCK fusion peptide harnesses the synergistic effects on metabolism of CCK-1 and GLP-1 receptor agonism in mice” (Appetite, 2018).)
